Laboratory results as given in patent publication US9157062B2, “Compositions and methods for promoting the generation of PDX1+ pancreatic cells” (President and Fellows of Harvard College, priority 2008, dated 2015).

Columns and labels:
[1] = test system: HUES8-derived population (Pdx1+ cells); assay: Pdx1 antibody staining of treated HUES8-derived population; assay type: cell-based, human; conditions: HUES8-derived population, 4 days; 300 nM ILV and/or 50 ng/ml FGF10
Procedure: (§1) To generate a starting population, HUES cells were cultured on MEF feeder cells until 80-90% confluent, then treated with 25 ng/ml Wnt3a (R&D systems)+100 ng/ml Activin A (R&D systems) in advanced RPMI (A-RPMI, Invitrogen) supplemented with 1×L-Glu and 1×PS for 1 day, and then 100 ng/ml Activin A in A-RPMI supplemented with 1×L-Glu, 1×PS and 0.2% FBS (Invitrogen). Two days later, the media was changed to 50 ng/ml FGF10 (R&D systems)+0.25 μM KAAD-CYC (Calbiochem) in A-RPMI supplemented with 1×L-Glu, 1×PS and 2% FBS and maintained for additional 2 days. Cells were then transferred to 50 ng/ml FGF10+0.25 μM KAAD-CYC+2 μM RA (Sigma) in DMEM supplemented with 1×L-Glu, 1×PS, 1×B27 (Invitrogen) and cultured for an additional 4 days. ILV was obtained from Axxora, KAAD-CYC, TPB, PMA, BISI, Gö 6983, U0126 and PD98059 were obtained from Calbiochem and RA were obtained from Sigma.
(§2) Cells were fixed with 10% formalin solution (Sigma) for 20 min at room temperature. Immunostaining was carried out with standard protocols. The following primary antibodies were used: goat anti-Pdx1 (1:500; R&D system); rabbit anti-FOXA2 (1:500; Upstate); rabbit anti-HNF6 (1:200; Santa Cruz Biotech); guinea pig anti-insulin (1:1000; Dako); rabbit anti-c-peptide (1:500; Linco); rabbit anti-amylase (1:200, Sigma); goat anti-HNF1β (1:100, Santa Cruz Biotech); and biotinylated DBA (1:400; Vector Lab). Alexa-488-, Alexa-555, and Alexa-647-conjugated donkey antibodies against mouse, rabbit, guinea pig and goat, and Pacific Blue conjugate-streptavidin (Invitrogen) were used at 1:300 dilution.
To determine whether PKC signaling is being activated in HUES-derived cells, HUES8-derived definitive endoderm population was treated with two PKC agonists, TPB ((2S,5S)-(E,E)-8-(5-(4-(trifluoromethyl)phenyl)-2,4-pentadienoylamino)benzolactam) and PMA (phorbol-12-myristate-13-acetate), in the absence of ILV. […] Furthermore, HUES8-derived population was treated with two PKC antagonists, BISI (Bisindolylmaleimide I) and Gö 6983, in the presence of ILV.
Experiments were performed to monitor downstream signaling by PKC. Since ERK signaling has been reported to be regulated by PKC (Ueda et al., 1996), the activity of ERK signaling was examined with Western blotting to detect the phosphorylation of ERK1/2 at Thr-202/Tyr-204.

[2] = test system: HUES8-derived definitive endoderm population; assay: Pancreatic specification of the hESC-derived definitive endoderm population (Pdx1+ cells); assay type: cell-based, human; conditions: definitive endoderm population with 70% Sox17+ cells, 4 days; 300 nM ILV, 50 ng/ml FGF10
Procedure: FIG. 6c are results showing that ILV directs the specification of definitive endoderm population toward pancreatic lineage (definitive endoderm population was derived from HUES8 after 1 day treatment with 25 ng/ml Wnt3a and 100 ng/ml Activin A for 1 day and 100 ng/ml Activin A for additional 2 days; then, the definitive endoderm population was treated with 300 nM ILV or 300 nM ILV+50 ng/ml FGF10 for additional 4 days);
Secondly, ILV was examined on the definitive endoderm population containing 70% Sox17^+ cells derived from HUES8 by Wnt3a/Activin treatment (D'Amour et al., 2006). […] Thus, ILV functions by inducing pancreatic specification of hESC-derived definitive endoderm population.

[3] = test system: protein kinase C (PKC) signaling; conditions: some cell lines; Heikkila and Akerman, 1989; Hirota et al., 1987; cited from earlier work
[4] = test system: hESC-derived population (Pdx1+ cells); assay: ILV titration and test on other hESC lines, Pdx1+ cells; assay type: cell-based, human
Procedure: as §1, §2
Additional experiments were carried out to optimize treatment to obtain more Pdx1^+ cells. […] Secondly, since hESC lines vary in their differentiation potentials (Osafune et al., 2008), ILV was tested on other hESC lines and shown to be effective on HUES 2, 4 and 8. After 4 days treatment with ILV, 26.9±2.8% cells of HUES8-derived population are positively stained by Pdx1 antibody (FIG. 2b), making it the most responsive of the lines tested.

[5] = test system: ERK1/2 phosphorylation at Thr-202/Tyr-204; assay: Western blot of ERK1/2 phosphorylation; assay type: cell-based, human; conditions: 300 nM ILV, 1 hour, compared to DMSO-treated control
Procedure: Cells were lysed in 1×RIPA lysis buffer (Upstate Biotechnology) with 1% protease inhibitor mixture (Sigma)/1% phosphatase inhibitor mixture (Sigma)/1% phosphatase inhibitor mixture II (Sigma). Proteins were separated by 4-20% Tris-Glycine SDS/PAGE (Biorad) under denaturing conditions and transferred to a nitrocellulose membrane. After blocking with 5% nonfat milk in DPBS, the membrane was incubated with primary antibodies against phospho-ERK1/2 (Thr-202/Tyr-204) (1:2,000, Sigma) and ERK1/2 (1:1,000, Cell Signaling) overnight at 4° C. The membrane was then washed, incubated with anti-mouse/rabbit peroxidase-conjugated affinity-purified secondary antibody (1:1000, Cell Signaling) at room temperature for 1 hour, and developed by SuperSignal chemiluminescence (Pierce).
Experiments were performed to monitor downstream signaling by PKC. Since ERK signaling has been reported to be regulated by PKC (Ueda et al., 1996), the activity of ERK signaling was examined with Western blotting to detect the phosphorylation of ERK1/2 at Thr-202/Tyr-204. After 1 hour treatment with 300 nM ILV, the phosphorylation of ERK1/2 increased compared to the DMSO-treated control (FIG. 8a). In addition, MEK/ERK inhibitors, PD098059 or U0126, both block ILV's effect. […]

(−)-Indolactam V [ILV]
percentage of cells stained by Pdx1 antibody [1]: 26.9±2.8%
Pdx1+ cells [2]: 21.5±2.4%
PKC signaling [3]: activates
effect on other hESC lines ([4]; HUES 2, 4 and 8): effective
toxicity ([4]; at 300 nM): no detectable toxicity
concentration of highest efficiency ([4]; titration of ILV from 20 nM to 5 μM): 300 nM
EC50 ([4]; titration of ILV from 20 nM to 5 μM, read-out: EC50 (dose-dependent increase of Pdx1+ cells)): 142 nM
phosphorylation of ERK1/2 [5]: increased
